Measurements from patent US11186592B2, “Thiazolopyridine derivatives as adenosine receptor antagonists” (MERCK PATENT GMBH, priority 2017, dated 2021).

What was measured:
[1] = Pharmacokinetic properties in mouse after single intravenous and oral administration; conditions: for half-life / Cmax / clearance / Vd: female, iv, 0.2 mg/kg; for clearance: CL; for clearance / Vd: iv administration; for Vd: Vss
Description: Female Wistar rats/mice (n=6) received either a single intravenous (bolus) injection or an oral administration (by gavage) of the tested compound.
The concentrations of the compounds in plasma, feces were quantified using an UPLC method with tandem mass spectrometric detection (LC-MS/MS) previously developed at the ‘Institute of Drug Metabolism and Pharmacokinetics’. […] The detection of the compounds was performed using multiple reaction monitoring in the positive ionization mode. Plasma samples were spiked with internal standard (20 μl) and the analyte was extracted from the matrix using tertiary-butyl methyl ether (tBME). The organic phase was evaporated to dryness under a stream of nitrogen. The residue was dissolved in acetonitrile/0.1% formic acid for LC-MS/MS analysis. Feces samples were homogenized with 4-times their volume of an ethanol/water mixture (4:1, v/v). Aliquots of the aqueous-ethanolic extracts were spiked with internal standard, diluted with acetonitrile/water (1:1, v/v) and directly injected into the LC-MS/MS system.
Pharmacokinetic parameters Cmax and tmax were taken from the observed data. […] AUC values were calculated by non-compartmental analysis using the linear up/log down method. Numerical data for mean plasma concentrations and derived pharmacokinetic parameters were rounded to 3 significant digits for presentation.

human A2A receptor = molecular target: T1, human A2A receptor (Homo sapiens, UniProt P29274); experiment: cAMP (HTRF) functional assay, recombinant HEK293 cells expressing human A2A receptor, agonist NECA; assay type: cell-based
T1 construct: expressed in transfected cells; host or cells: HEK293
T1 sequence (P29274 whole entry): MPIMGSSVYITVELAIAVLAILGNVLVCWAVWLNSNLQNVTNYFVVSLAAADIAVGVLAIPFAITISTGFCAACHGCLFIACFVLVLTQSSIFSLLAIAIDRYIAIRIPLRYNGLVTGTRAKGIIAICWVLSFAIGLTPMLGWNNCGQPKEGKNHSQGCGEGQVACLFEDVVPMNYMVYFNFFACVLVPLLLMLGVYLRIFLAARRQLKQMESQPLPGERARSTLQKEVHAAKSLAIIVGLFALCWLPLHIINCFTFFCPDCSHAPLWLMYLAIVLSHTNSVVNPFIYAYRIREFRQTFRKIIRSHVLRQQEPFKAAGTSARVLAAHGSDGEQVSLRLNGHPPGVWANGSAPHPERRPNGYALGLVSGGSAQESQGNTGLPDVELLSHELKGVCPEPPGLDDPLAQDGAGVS
Procedure, shortened: (§1)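 Intracellular cAMP, the adenosine receptor second messenger, is measured by HTRF following 30 min co-incubation with forskolin, agonist and test compound. Normalization uses DMSO as the neutral control and an inhibitor as the reference control. Fitted curves yield the values.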

human A2B receptor = molecular target: T2, human A2B receptor (Homo sapiens, UniProt P29275); experiment: cAMP (HTRF) functional assay, recombinant HEK293 cells expressing human A2B receptor, agonist NECA; assay type: cell-based
T2 construct: expressed in transfected cells; host or cells: HEK293
T2 sequence (P29275 1-332): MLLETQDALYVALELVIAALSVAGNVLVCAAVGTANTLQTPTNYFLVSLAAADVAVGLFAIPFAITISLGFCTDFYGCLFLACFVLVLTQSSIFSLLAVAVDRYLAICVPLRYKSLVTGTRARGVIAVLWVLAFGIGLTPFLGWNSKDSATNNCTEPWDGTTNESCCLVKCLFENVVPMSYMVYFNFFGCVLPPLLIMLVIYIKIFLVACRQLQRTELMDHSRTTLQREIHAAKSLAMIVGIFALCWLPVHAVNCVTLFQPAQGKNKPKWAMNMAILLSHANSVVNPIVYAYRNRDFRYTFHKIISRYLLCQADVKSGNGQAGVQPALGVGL
Procedure, shortened: as §1

human A1 receptor = molecular target: T3, human A1 receptor (Homo sapiens, UniProt P30542); experiment: cAMP (HTRF) functional assay, recombinant CHO cells expressing human A1 receptor, forskolin + agonist CPA; assay type: cell-based
T3 construct: expressed in transfected cells; host or cells: CHO
T3 sequence (P30542 1-326): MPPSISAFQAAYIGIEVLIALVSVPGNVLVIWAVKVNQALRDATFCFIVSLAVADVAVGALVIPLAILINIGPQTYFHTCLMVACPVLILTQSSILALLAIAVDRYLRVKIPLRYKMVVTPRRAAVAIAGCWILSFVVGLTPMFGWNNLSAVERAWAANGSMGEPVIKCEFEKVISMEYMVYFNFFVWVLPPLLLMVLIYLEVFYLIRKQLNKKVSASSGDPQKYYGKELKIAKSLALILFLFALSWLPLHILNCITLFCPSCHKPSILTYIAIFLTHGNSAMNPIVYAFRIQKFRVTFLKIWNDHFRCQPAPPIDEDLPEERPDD
Procedure, shortened: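 Normalized HTRF cAMP signals (inhibitor and DMSO controls as references) were curve-fitted; assays used forskolin-stimulated CHO cells with A1 or A3, agonist CPA or IB-MECA respectively, 30 min compound incubation.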

human A3 receptor = molecular target: T4, human A3 receptor (Homo sapiens, UniProt P0DMS8); experiment: cAMP (HTRF) functional assay, recombinant CHO cells expressing human A3 receptor, forskolin + agonist IB-MECA; assay type: cell-based
T4 construct: expressed in transfected cells; host or cells: CHO
T4 sequence (P0DMS8 1-318): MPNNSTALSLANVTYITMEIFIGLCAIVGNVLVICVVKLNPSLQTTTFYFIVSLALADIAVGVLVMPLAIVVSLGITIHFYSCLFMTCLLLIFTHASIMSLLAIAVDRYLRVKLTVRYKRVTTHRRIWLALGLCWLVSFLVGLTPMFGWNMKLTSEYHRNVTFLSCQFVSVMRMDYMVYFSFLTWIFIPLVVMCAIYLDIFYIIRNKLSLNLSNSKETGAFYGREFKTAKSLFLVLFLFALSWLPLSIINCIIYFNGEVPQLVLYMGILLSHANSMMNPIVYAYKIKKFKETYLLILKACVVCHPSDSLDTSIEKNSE
Description: The functional activities of human A2A, A2B, A1 and A3 receptors were determined by quantification of cAMP, being the second messenger for adenosine receptors.
For human A1 and A3 receptors, recombinant CHO cells, expressing either A1 or A3-receptor, were used. As both receptors couple to Gi proteins, the assay protocol was adapted:
Cells were seeded into 384-well plates, forskolin, test compounds and agonists (CPA for A1- and IB-MECA for A3-receptor) were added. After 30 min incubation, HTRF reagents (cAMP dynamic 2, Cis Bio) were added and the cellular cAMP levels were determined using the ENVISION (Perkin Elmer) plate reader. Obtained raw data were normalized against the inhibitor control and the neural control (DMSO) and the normalized data were fitted using GeneData software.

| SMILES | IC50 (human A2A receptor) | IC50 (human A2B receptor) | IC50 (human A1 receptor) | IC50 (human A3 receptor) | Feces iv ([1]; % of dose in feces after iv, @0.2 (iv dose 0.2 mg/kg)) | half-life ([1]; in vivo) | Cmax ([1]; plasma) | clearance ([1]; plasma) | Vd ([1]; plasma) | Cmax ([1]; in vivo) |
| --- | --- | --- | --- | --- | --- | --- | --- | --- | --- | --- |
| COCCn1cc(C(=O)Nc2nc3c(OC)ccc(N4CCOCC4)c3s2)cn1 [Benzothiazole analogue to No. 4, reference compound] |  |  |  |  | 2.6@0.2% | 19.9 min | 940 ng/mL | 36.3 mL/min/kg | 0.946 L/kg |  |
| COc1ncc(N2CCOCC2)c2sc(NC(=O)N3CCC(C)(O)CC3)nc12 [compound 1, 4-Hydroxy-4-methyl-piperidine-1-carboxylic acid (4-methoxy-7-morpholin-4-yl-thiazolo[4,5-c]pyridin-2-yl)-amide] |  |  |  |  |  | 10.3 min |  | 114 mL/min/kg | 1.45 L/kg | 449 ng/mL |
| COc1ncc(-c2ccccc2)c2sc(NC(=O)c3ccc(N4C(=O)CCC4=O)cc3)nc12 [compound 213, 4-(2,5-Dioxo-pyrrolidin-1-yl)-N-(4-methoxy-7-phenyl-thiazolo[4,5-c]pyridin-2-yl)-benzamide] | < 10 nM | < 100 nM | < 1000 nM | > 1000 nM |  |  |  |  |  |  |
| COCCOc1cccc(-c2cnc(OC)c3nc(NC(=O)c4cnn(CCOC)c4)sc23)c1 [compound 233, N-{4-methoxy-7-[3-(2-methoxyethoxy)phenylH]-[1,3]thiazolo[4,5-c]pyridin-2-yl}-1-(2-methoxyethyl)-1H-pyrazole-4-carboxamide] | < 10 nM | < 10 nM | < 1000 nM | < 1000 nM |  |  |  |  |  |  |
| COc1ncc(C2CCOCC2)c2sc(NC(=O)c3cnn(C)c3)nc12 [compound 235, N-[4-methoxy-7-(oxan-4-yl)-[1,3]thiazolo[4,5-c]pyridin-2-yl]-1-methyl-1H-pyrazole-4-carboxamide] | < 10 nM | < 10 nM | < 100 nM | < 1000 nM |  |  |  |  |  |  |
| COc1ncc(C2=CCOCC2)c2sc(NC(=O)c3cnn(C)c3)nc12 [compound 238, N-[7-(3,6-dihydro-2H-pyran-4-yl)-4-methoxy-[1,3]thiazolo[4,5-c]pyridin-2-yl]-1-methyl-1H-pyrazole-4-carboxamide] | < 10 nM | < 10 nM | < 10 nM | < 1000 nM |  |  |  |  |  |  |
| COc1ncc(C2CCOCC2)c2sc(NC(=O)c3cnc(N)s3)nc12 [compound 241, 2-amino-N-[4-methoxy-7-(oxan-4-yl)-[1,3]thiazolo[4,5-c]pyridin-2-yl]-1,3-thiazole-5-carboxamide] | < 10 nM | < 10 nM | < 1000 nM | < 1000 nM |  |  |  |  |  |  |

Second part, led by results:

| IC50 (human A2A receptor) | IC50 (human A2B receptor) | IC50 (human A1 receptor) | IC50 (human A3 receptor) | SMILES | Feces iv ([1]; % of dose in feces after iv, @0.2 (iv dose 0.2 mg/kg)) | half-life ([1]; in vivo) | Cmax ([1]; plasma) | clearance ([1]; plasma) | Vd ([1]; plasma) | Cmax ([1]; in vivo) |
| --- | --- | --- | --- | --- | --- | --- | --- | --- | --- | --- |
| < 10 nM | < 100 nM | > 1000 nM | > 1000 nM | COc1ncc(-c2ccccc2)c2sc(NC(=O)N3CC[C@]4(CCCOC4)C3)nc12 [compound 205, (R)-7-Oxa-2-aza-spiro[4.5]decane-2-carboxylic acid (4-methoxy-7-phenyl-thiazolo[4,5-c]pyridin-2-yl)-amide] |  |  |  |  |  |  |
| < 10 nM | < 100 nM | < 1000 nM | > 1000 nM | COc1ncc(-c2ccccc2)c2sc(NC(=O)N3CC[C@]4(CCOC4)C3)nc12 [compound 207, (S)-2-Oxa-7-aza-spiro[4.4]nonane-7-carboxylic acid (4-methoxy-7-phenyl-thiazolo[4,5-c]pyridin-2-yl)-amide] |  |  |  |  |  |  |
| < 10 nM | < 100 nM | > 1000 nM | > 1000 nM | COc1ncc(-c2ccccc2)c2sc(NC(=O)N3CC[C@@]4(CCOC4)C3)nc12 [compound 208, (R)-2-Oxa-7-aza-spiro[4.4]nonane-7-carboxylic acid (4-methoxy-7-phenyl-thiazolo[4,5-c]pyridin-2-yl)-amide] |  |  |  |  |  |  |
| < 10 nM | < 100 nM | > 1000 nM | > 1000 nM | COc1ncc(-c2cccc(F)c2F)c2sc(NC(=O)N3CCC4(CCOCC4)C3)nc12 [compound 209, 8-Oxa-2-aza-spiro[4.5]decane-2-carboxylic acid [7-(2,3-difluoro-phenyl)-4-methoxy-thiazolo[4,5-c]pyridin-2-yl]-amide] |  |  |  |  |  |  |
| < 10 nM | < 100 nM | > 1000 nM | > 1000 nM | COc1ncc(-c2cc(F)ccc2F)c2sc(NC(=O)N3CCC4(CCOCC4)C3)nc12 [compound 210, 8-Oxa-2-aza-spiro[4.5]decane-2-carboxylic acid [7-(2,5-difluoro-phenyl)-4-methoxy-thiazolo[4,5-c]pyridin-2-yl]-amide] |  |  |  |  |  |  |
| < 10 nM | < 100 nM | > 1000 nM | > 1000 nM | COc1nc(Cl)c(-c2ccccc2)c2sc(NC(=O)N3CCC4(CCOCC4)C3)nc12 [compound 220, 8-Oxa-2-aza-spiro[4.5]decane-2-carboxylic acid (6-chloro-4-methoxy-7-phenyl-thiazolo[4,5-c]pyridin-2-yl)-amide] |  |  |  |  |  |  |
| < 10 nM | < 10 nM | < 100 nM | < 100 nM | COCCOc1cccc(-c2c(F)nc(OC)c3nc(NC(=O)N4CCC5(CCOCC5)C4)sc23)c1 [compound 234, N-{6-fluoro-4-methoxy-7-[3-(2-methoxyethoxy)phenyl]-[1,3]thiazolo[4,5-c]pyridin-2-yl}-8-oxa-2-azaspiro[4.5]decane-2-carboxamide] |  |  |  |  |  |  |
| < 100 nM | < 100 nM | > 1000 nM | > 1000 nM | COc1ccccc1-c1cnc(OC)c2nc(NC(=O)N3CCC4(CCOCC4)C3)sc12 [compound 236, N-[4-methoxy-7-(2-methoxyphenyl)-[1,3]thiazolo[4,5-c]pyridin-2-yl]-8-oxa-2-azaspiro[4.5]decane-2-carboxamide] |  |  |  |  |  |  |
| < 100 nM | > 1000 nM | > 1000 nM | > 1000 nM | COc1ccc(-c2cnc(OC)c3nc(NC(=O)N4CCC5(CCOCC5)C4)sc23)c(OC)n1 [compound 239, N-[7-(2,6-dimethoxypyridin-3-yl)-4-methoxy-[1,3]thiazolo[4,5-c]pyridin-2-yl]-8-oxa-2-azaspiro[4.5]decane-2-carboxamide] |  |  |  |  |  |  |
